Target: Plasmodium falciparum phosphatidylserine decarboxylase (PfPSD) (Plasmodium falciparum, UniProt Q9GPP8)
Assay: radiometric decarboxylase assay
Assay type: biochemical

Plasmodium falciparum phosphatidylserine decarboxylase (PfPSD), sequence (Q9GPP8 41-315): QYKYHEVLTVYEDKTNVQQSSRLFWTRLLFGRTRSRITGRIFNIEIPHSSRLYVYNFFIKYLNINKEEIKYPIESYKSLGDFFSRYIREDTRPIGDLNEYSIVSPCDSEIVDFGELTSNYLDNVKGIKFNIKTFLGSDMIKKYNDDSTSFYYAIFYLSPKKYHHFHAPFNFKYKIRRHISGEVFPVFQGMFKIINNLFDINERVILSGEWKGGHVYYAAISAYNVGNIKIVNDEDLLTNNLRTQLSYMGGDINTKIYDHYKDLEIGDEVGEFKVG
Plasmodium falciparum phosphatidylserine decarboxylase (PfPSD), sequence (Q9GPP8 316-362): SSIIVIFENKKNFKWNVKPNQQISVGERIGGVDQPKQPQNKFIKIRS

**Q.** For `CCCc1ccc(Nc2ccnc3cc(Cl)ccc23)cc1` [7CPQA, 7-chloro-N-(4-propylphenyl)-4-quinolinamine], which IC50 is on record?
**A.** 10 to 100 µM

Reference: PMC4898484 (Molecular microbiology, 2015)
